Assay results published in PMC6100044 (Molecules : A Journal of Synthetic Chemistry and Natural …, 2018).
Read-outs that look alike come from different tables or passages of the source.

What was measured:
[1] = test system: myelogenous leukemia cell line K562; test: Cytotoxicity, MTT assay, K562; assay type: cell-based, human; details: for IC50: Homo sapiens, K562, MTT assay conducted for 72 h, read-out: Mean (±S.D.) IC50 K562
Description: (§1) Selected compounds were carried forward for screening against the immortalized myelogenous leukemia, K562, human microvascular endothelial cells (HMEC-1) and fresh human fibroblasts HDF (Table 2) using the MTT assay, as above.
(§2) A long term microvascular endothelial cell line (HMEC-1) immortalized by SV 40 large T antigen was kindly provided by Dr. Francisco J. Candal, Center for Disease Control, Atlanta, GA, USA. […] Fibroblasts from skin biopsies were maintained in DMEM (EuroClone, Pero, Italy) supplemented with 10% fetal calf serum (HyClone, Logan, UT, USA), 2 mM glutamine, 100 U/mL of penicillin and 100 µg/mL of streptomycin.
(§3) Cells were then treated with serial dilutions of test compounds and cell proliferation evaluated using the MTT assay as previously described. […] All the tests were performed in triplicate at least three times.
(§4) As a blank, uninfected RBCs were used for the antimalarial assays or media without cells for the cytotoxicity assays. The percent viability was plotted as a function of drug concentrations, and the curve fitting was obtained by nonlinear regression analysis using a four parameter logistic method (software Gen5 1.10 provided with the Synergy4 plate reader [Biotek]).

[2] = test system: fresh human dermal fibroblasts HDF; test: Cytotoxicity, MTT assay, HDF; assay type: cell-based; details: Fibroblast, MTT assay conducted for 72 h, read-out: Mean (±S.D.) IC50 HDF
Description: as §1, §2, §3, §4

[3] = test system: P. falciparum CQ-sensitive D10; test: In vitro antimalarial assay (pLDH), Pf D10 strain; assay type: cell-based, Plasmodium falciparum; details: for IC50: read-out: D10 (CQ-S) Mean ± S.D. IC50; for Ratio IC50 cpd/IC50 DHA: D10 strain; for SI IC50WEHI-164/IC50 cpd: selectivity index versus D10 strain
Description: (§5) Compounds were dissolved in either water or DMSO and then diluted with medium to achieve the required concentrations (final DMSO concentration <1%, which is non-toxic to the parasite). […] Parasite growth was determined spectrophotometrically (OD650) by measuring the activity of the parasite lactate dehydrogenase (pLDH) according to a modification of the method of Makler in control and drug-treated cultures.
as §4

[4] = test system: P. falciparum CQ-resistant W-2; test: In vitro antimalarial assay (pLDH), Pf W-2 strain; assay type: cell-based, Plasmodium falciparum; details: for IC50: 72 h, read-out: W-2 (CQ-R) Mean ± S.D. IC50; for Ratio IC50 cpd/IC50 DHA: W-2 strain; for SI IC50WEHI-164/IC50 cpd: selectivity index versus W-2 strain
Description: as §5, §4

[5] = test system: mouse fibrosarcoma cell line WEHI-164; test: Cytotoxicity, MTT assay, WEHI-164; assay type: cell-based; details: read-out: WEHI-164 Mean ± S.D. IC50
[6] = test system: Plasmodium falciparum (Pf) D6; details: Pf D6 in vitro; cited from earlier work
[7] = test system: Plasmodium falciparum (Pf) W2; details: Pf W2 in vitro; cited from earlier work
[8] = test system: human microvascular endothelial cells (HMEC-1); test: Cytotoxicity, MTT assay, HMEC-1; assay type: cell-based; details: MTT assay conducted for 72 h, read-out: Mean (±S.D.) IC50 HMEC
Description: as §1, §2, §3, §4

[9] = test system: different strains of Plasmodium falciparum (Pf); test: In vitro antimalarial assay (pLDH), summary over different Pf strains; assay type: cell-based; details: for IC50: Plasmodium falciparum, range over D10 and W-2 strains, read-out: IC50 against different strains of Plasmodium falciparum; for selectivity index (SI) with respect to WEHI-164: WEHI-164 IC50 / antimalarial IC50, over the strains
Description: as §5, §4

[10] = parameters: method as in earlier work; details: 28 (artemisone), 29 (DHA); cited from earlier work
[11] = human; cited from earlier work
[12] = Plasmodium falciparum, D10, 72 h, CQ-sensitive strain, 72 h, pLDH readout
[13] = Plasmodium falciparum, CQ-resistant strain, pLDH readout
[14] = Mus musculus, WEHI-164, 72 h, MTT, 72 h
[15] = CQ-sensitive strain, 72 h, pLDH readout
[16] = CQ-resistant strain, pLDH readout

Compound	IC50 [1] [nM]	IC50 [2] [nM]	Ratio IC50 cpd/IC50 DHA [3]	IC50 [3, 12] [nM]	SI IC50WEHI-164/IC50 cpd [3]	Ratio IC50 cpd/IC50 DHA [4]	SI IC50WEHI-164/IC50 cpd [4]	IC50 [5, 14] [nM]	IC50 [3, 15] [nM]	IC50 [4, 16] [nM]	IC50 ([5]; MTT, 72 h) [nM]	other results
CC[C@@]1(O)C(=O)OCc2c1cc1n(c2=O)Cc2cc3ccccc3nc2-1 [Camptothecin, camptothecin, reference compound]	30 ± 10	2620 ± 840										SI with respect to the human dermal fibroblasts (HDF) ([1]; HDF versus K562): < 100
CCN(CC)CCCC(C)Nc1ccnc2cc(Cl)ccc12 (centres unmarked) [Chloroquine, chloroquine, reference compound]												IC50 ([3]; Plasmodium falciparum, D10, 72 h): 23.4 ± 10.1 nM; IC50 ([4]; Plasmodium falciparum): 264 ± 143 nM; IC50 ([5]; Mus musculus, WEHI-164, 72 h): > 10000 nM
CC1CCC2C(C)C(N3CCNCC3)OC3OC4(C)CCC1C32OO4 (stereo not drawn) [Compound 10, 10α-(1-Piperazino)-10-deoxo-10-dihydroartemisinin]			0.41	1.4 ± 0.5	107	0.73	136	150 ± 10				IC50 [4, 13]: 1.1 ± 0.4 nM
CC1CCC2C(C)C(OC3OC(CO)C(O)C(O)C3O)OC3OC4(C)CCC1C32OO4 (centres unmarked) [Compound 11]												IC50 [6]: 272 nM; IC50 [7]: 76.3 nM
CC1CCC2C(C)C(OC3OC(CO)C(O)C(O)C3O)OC3OC4(C)CCC1C32OO4 (centres unmarked) [Compound 12]												IC50 [6]: 29.4 nM; IC50 [7]: 79.7 nM
CC1CCC2C(C)C(N3CCN(C4OC(CO)C(O)C(O)C4O)CC3)OC3OC4(C)CCC1C32OO4 (centres unmarked) [Compound 18]	810 ± 240	382000 ± 31200	0.38		215	0.8	233		1.3 ± 0.1	1.2 ± 0.3	280 ± 80	IC50 [8]: 4410 ± 2290 nM
CC1CCC2C(C)C(N3CCN(C4OC(CO)C(O)C(O)C4O)CC3)OC3OC4(C)CCC1C32OO4 (centres unmarked) [Compound 19]			0.26		195	0.5	239		0.87 ± 0.25	0.71 ± 0.2	170 ± 30	IC50 [9]: 0.58 to 0.87 nM; selectivity index (SI) with respect to WEHI-164 [9]: > 195
CC1CCC2C(C)C(N3CCN(C4OC(CO)C(O)C(O)C4O)CC3)OC3OC4(C)CCC1C32OO4 (centres unmarked) [Compound 20]			1.7		596	2.9	772		5.7 ± 2.9	4.4 ± 2.3	3400	
CC1CCC2C(C)C(N3CCN(C4OC(CO)C(OC5OC(CO)C(O)C(O)C5O)C(O)C4O)CC3)OC3OC4(C)CCC1C32OO4 (centres unmarked) [Compound 21]	780 ± 150	534000 ± 9900	0.56	1.9 ± 1.1	131	1.0	166	250 ± 90				IC50 [4, 13]: 1.5 ± 0.5 nM; IC50 [8]: 2500 ± 800 nM
CC1CCC2C(C)C(N3CCN(C4CC(O)C(O)C(CO)O4)CC3)OC3OC4(C)CCC1C32OO4 (centres unmarked) [Compound 22]			0.68	2.3 ± 1	222	0.73	463	510 ± 100				IC50 [4, 13]: 1.1 ± 0.4 nM
CC1CCC2C(C)C(N3CCN(C4OC(C)C(O)C(O)C4O)CC3)OC3OC4(C)CCC1C32OO4 (centres unmarked) [Compound 23]	1950 ± 480	314000 ± 85600	0.22	< 1	878	0.49	878	650 ± 60	0.74 ± 0.34	0.74 ± 0.3		IC50 [4, 13]: < 1 nM; IC50 [9]: 0.58 to 0.87 nM; selectivity index (SI) with respect to WEHI-164 [9]: > 195
CC1CCC2C(C)C(N3CCN(C4OC(CO)C(O)C4O)CC3)OC3OC4(C)CCC1C32OO4 (centres unmarked) [Compound 24]	870 ± 50	389000 ± 8600	1.4		102	2.7	119		4.8 ± 2.9	4.1 ± 3.2	490 ± 200	IC50 [8]: 2390 ± 1510 nM
CC1CCC2C(C)C(N3CCN(C4OC(CO)C(O)C4O)CC3)OC3OC4(C)CCC1C32OO4 (centres unmarked) [Compound 25]			0.19		242	0.39	275		0.66 ± 0.2	0.58 ± 0.3	160 ± 40	IC50 [9]: 0.58 to 0.87 nM; selectivity index (SI) with respect to WEHI-164 [9]: > 195
CC1CCC2C(C)C(N3CCN(C4OC(CO)C(O)C4O)CC3)OC3OC4(C)CCC1C32OO4 (centres unmarked) [Compound 26]			0.38		161	0.55	256		1.3 ± 0.8	0.82 ± 0.25	210 ± 10	
C[C@H]1[C@@H](O)O[C@@H]2O[C@@]3(C)CC[C@H]4[C@H](C)CC[C@@H]1[C@@]24OO3 [DHA 2, dihydroartemisinin, reference compound]	2760 ± 660	88700 ± 13300		3.4 ± 1.6				720 ± 140				IC50 [8]: 1160 ± 400 nM; elimination half-life [10]: ~ 1 h; plasma clearance [10]: ~ 5.4 L/h/kg; volume of distribution [10]: 7.7 L/kg; half-life of antimalarial activity [11]: ~ 3 h
C[C@@H]1CC[C@H]2[C@@H](C)C(=O)O[C@@H]3O[C@@]4(C)CC[C@@H]1[C@]32OO4 [artemisinin 1, artemisinin]												IC50 [6]: 10.4 nM; IC50 [7]: 2.4 nM
